According to patent US8222262B2, “Indazolyl derivatives useful as potassium channel modulating agents” (Neurosearch A/S, priority 2006, dated 2012):

Tests used:
hSK3 channels = molecular target: T1, hSK3 channels (Homo sapiens, UniProt Q9UGI6); test: Whole-cell patch-clamp recording of ionic current through SK channels (subtype 3) in HEK293 cells expressing hSK3; type: cell-based; settings: baseline current at -75 mV, free Ca2+ 0.3-0.4 μM, room temperature
T1 construct: expressed in transfected cells; host or cells: HEK293
Procedure: The ionic current through small-conductance Ca^2+-activated K^+ channels (SK channels, subtype 3) is recorded using the whole-cell configuration of the patch-clamp technique.
HEK293 tissue culture cells expressing hSK3 channels were grown in DMEM (Dulbecco's Modified Eagle Medium) supplemented with 10% FCS (foetal calf serum) at 37° C. in 5% CO2. At 60-80% confluency, cells were harvested by trypsin treatment and seeded on cover slips.
Experiments are carried out a patch-clamp set-up. Cells plated on coverslips are placed in a 15 μl perfusion chamber (flowrate ˜1 ml/min) mounted on an inverted microscope placed on a vibration-free table in a grounded Faraday cage. All experiments are performed at room temperature (20-22° C.). […] Data are stored directly on the hard-disk and analysed by IGOR software (Wavemetrics, Lake Oswega, Oreg., USA).
The whole-cell configuration of the patch-clamp technique is applied. […] Cell capacitance is electronically compensated and the resistance between the pipette and the cell interior (the series resistance, Rs) is measured and compensated for. […]
The intracellular (pipette) solution contained: 154 mM KCl, 10 mM HEPES, 10 mM EGTA. Concentrations of CaCl2 and MgCl2 needed to obtain the desired free concentrations of Ca^2+ (0.3-0.4 μM, Mg^2+ always 1 mM) were calculated by EqCal software (Cambridge, UK) and added. […]

Row | SMILES | melting point [°C] | SC100 (Stimulating Concentration required for increasing the baseline current by 100%) (hSK3 channels) [µM]
1 | Clc1ccc(Nc2cncc(-n3cc4ccccc4n3)n2)cc1 [Compound D1, (4-Chloro-phenyl)-(6-indazol-2-yl-pyrazin-2-yl)-amine] | 249 to 252 | –
2 | c1ccc2c(c1)cnn2-c1nc(NC2CCCCC2)c2ccccc2n1 [Compound A3, Cyclohexyl-(2-indazol-1-yl-quinazolin-4-yl)-amine] | 278.1 to 281.4 | –
3 | Cc1cc(Nc2ccc(Cl)cc2)nc(-n2cc3ccccc3n2)n1 [Compound A1, (4-Chloro-phenyl)-(2-indazol-2-yl-6-methyl-pyrimidin-4-yl)-amine] | 224.7 to 226.7 | 0.08
